Results on 86 compounds are retold here after a melting point compilation (Tetko et al.; mined from patent text by program, amines drawn as free bases though some values may be those of a salt).

By melting point is commonly meant the temperature of the solid-liquid transition. `CC(=O)NC1CSc2ccccc2NC1=O` (stereo unspecified) yielded a melting point of 283 to 286 °C. With `CCOC(=O)c1c(COC(C)=O)cccc1S(=O)(=O)NC(=O)Nc1nc(OC)cc(OC)n1`, the melting point lay in the range of 162 to 163 °C. The value for `COc1cc(Br)c(C=O)cc1OCc1ccccc1` was 140 to 141 °C; that for `O=S1(=O)CCN2C=CC=C(c3ccc(Oc4ccc(F)cc4)cc3)C2=N1` was 266 to 267 °C; that for `CN=C1CSc2ccccc2CN1` was 278 to 280 °C.

On to `O=c1c(Cl)c(Cl)cnn1C1OCCCC1Cl` (stereo unspecified), for which the melting point fell in the range of 109 to 110 °C. As to `COc1ccccc1-n1nc(-c2c(-c3ccccc3)nn3ccccc23)ccc1=O`, the melting point stood at 163 °C.

Consider `CCN1C(=O)C(C(=O)Nc2ccc(F)cc2)c2cc3c(cc21)C=CCO3` (stereo unspecified), for which the melting point lay in the range of 212 to 214 °C. With `O=C(O)Cc1cc2c([N+](=O)[O-])c(O)c(O)cc2oc1=O` the figure was above 350 °C; with `NC1Cc2ccc(-c3ccc(=O)[nH]n3)cc2C1` (stereo unspecified), 228 to 229 °C; with `CC(C)(C)OC(=O)NN=Cc1cccc(C#N)c1`, 115 to 158 °C.

`COC(=O)c1cccc(-c2nc(-c3ccc(F)cc3F)cs2)c1` gave a melting point of 121 to 122 °C. The value for `N#Cc1cc(NC(=O)c2cc3ccccc3s2)ccc1N1CCN(C2CCOCC2)CC1` was above 285 °C; that for `Cc1nc(-c2ccccc2C(F)(F)F)c2c(n1)N(c1ccc(C(C)C)cc1Br)CC(=O)N2` was 238 to 239 °C. The compound `CCOC(=O)CCCOc1cccc(Oc2nc(OC)cc(OC)n2)c1C=NNc1ccc(Cl)cc1` gave a melting point of 139 °C.

As to `COc1ccc(/C=C(\C#N)c2cccc(F)c2)cc1OC1CCCC1`, the melting point fell in the range of 114 to 116 °C. With `COc1cc2c(cn1)OCC21C(=O)N(CC2CCCO2)c2ccccc21` (stereo unspecified) the figure was above 250 °C. For the compound `Cc1cccc2c(-c3ccccc3)onc12`, the melting point was in the range of 73 to 75 °C. The value for `CC(Oc1ccc2c(c1)C(O)C(Oc1cccnc1)CO2)c1ccc2ccccc2n1` (stereo unspecified) was 75 to 83 °C; that for `O=C(CNC(=O)CN1CCCC1=O)NCC(=O)Nc1ccncc1` was 250 to 253 °C; that for `CCOc1cc(C=O)cc2c1OC(C)(C)C2` was 33 to 36 °C.

`N#Cc1nn(-c2c(Cl)cc(C(F)(F)F)cc2Cl)c(Br)c1S(=O)(=O)C(F)(F)F` had a melting point of 136 to 137 °C.

In turn, `COc1cc(C=CC(=O)C=Cc2cc(OC)cc(OC)c2)cc(OC)c1` came in with a melting point of 124 to 126 °C. With `CCNC(=O)c1ccc(N2CCN(Cc3cc4c(c(OC(F)F)c3)OC(C)C(=O)N4)CC2)c(Cl)c1` (stereo unspecified) the figure was 102 to 104 °C; with `O=[N+]([O-])c1c(-c2ccccc2)nn(CCCn2nc(-c3ccccc3)c([N+](=O)[O-])c2NCc2ccccc2)c1NCc1ccccc1`, 142 to 144 °C; with `CCOCc1nc2c(N)nc(C)c(C)c2n1CCOCCCc1cncnc1`, 127 to 129 °C. Consider `CS[C@@H]1CC[C@H](C(=O)O)Cc2onc(-c3ccc(Cl)cc3)c21` (relative stereo), for which the melting point was 241 to 242 °C.

Turning to `Cc1ncsc1C(=O)Nc1ccc(-n2nc(C(F)(F)F)cc2C2CC2)cc1`, the melting point was 137 to 141 °C. The value for `CSc1cc(C(F)(F)F)nn1-c1ccc(NC(=O)c2ccncc2F)cc1` was 142 to 143 °C; that for `CCN(C)C1=NS(=O)(=O)c2cc(Cl)ccc2N1` was above 220 °C; that for `CCCc1c(OCC(O)COc2cccc(NC(=O)C(=O)OCC)c2)ccc(C(C)=O)c1O` (stereo unspecified) was 98 to 101 °C.

Regarding `O=C(Nc1ccc(-n2nc(C(F)(F)F)cc2C2CC2)c(F)c1)c1ccc2nn[nH]c2c1`, the melting point lay in the range of 235 to 237 °C. The value for `OC1CCCC2C3CCCCCCC3C12` (stereo unspecified) was 142 °C; that for `CC(=O)NC[C@H]1CN(c2ccc(N3CCNC(=O)CC3)c(F)c2)C(=O)O1` was 140 to 146 °C; that for `CN(C)c1ccc(C2(c3ccc(N(C)C)cc3N(C)C)OC(=O)c3c(Cl)c(Cl)c(Cl)c(Cl)c32)c(N(C)C)c1` was 195 to 197 °C. The value for `O=C(c1cccnc1)N1CCC(c2ccccc2)=N1` was 87 to 89 °C; that for `CCCN(CO)c1nc(NCc2ccccc2)c2nc(Cl)n(C(C)C)c2n1` was 220 to 223 °C; that for `Cc1cc(Cc2cnc(N)nc2N)cc(C)c1N(C)C` was 162 to 163 °C. `CC(C)(C)COC(=O)Oc1cc(Cl)nnc1-c1ccc(Br)cc1` gave a melting point of 114 to 116 °C. With `COc1ccc(N2CCN(c3c(C)c(C)c4c(c3C)CC(C)(CN3CCS(=O)(=O)CC3)O4)CC2)cc1` (stereo unspecified) the figure was 145 to 164 °C. Turning to `CCNC(=S)Nc1ccc2ncc(Nc3cc(OC)c(OC)c(OC)c3)cc2n1`, the melting point lay within 237 to 238 °C. The value for `Cc1cc(C=O)ccc1C(O)c1cccnc1` (stereo unspecified) was 97.5 to 99 °C. Take `CCCn1c(=O)c2[nH]c(-c3cc(C)n(CC(=O)Nc4ccc(Cl)cc4)n3)nc2n(CCC)c1=O`: the melting point lay within 261 to 265 °C. The value for `CN(C)C1CC2=CNC=C3C=C(C(N)=O)OCC1=C32` (stereo unspecified) was 182 to 183 °C; that for `O=C(NCCc1cncn1Cc1ccc(Cl)cc1)[C@H]1CN(Cc2ccccc2)CCN1C(=O)NC1CCCCC1` was 116 °C; that for `CNC(Cc1cc(Br)ccc1N)c1ccsc1C` (stereo unspecified) was 72.5 to 74 °C. The value for `CCOC(=O)c1ccc(Nc2ccc([N+](=O)[O-])cc2N)cc1` was 145 to 150 °C; that for `COc1ccccc1-c1ccc(-c2ccc(C(=O)O)cc2)cc1-c1ccc2c(c1)C(C)(C)CCC2(C)C` was 133 to 136 °C.

In turn, `C=CCC(C)(CC=C)C(=O)O[C@H]1C[C@H](O)C=C2C=C[C@H](C)[C@H](CC[C@@H]3C[C@@H](O)CC(=O)O3)[C@H]21` registered a melting point of 115 to 116 °C. As for `COc1ccc2c3c(c(=O)oc2c1)CN(Cc1ccc(C(F)(F)F)cc1)CC3`, the melting point fell in the range of 203 to 206 °C. The value for `CCCCN(CCCC)CCCOc1ccc(S(=O)(=O)c2ncsc2-c2ccccc2)cc1` was 110 °C. With `CCC(Cc1ccccc1-c1ccccc1)C(=O)O` (stereo unspecified) the figure was 91.2 to 94 °C. With `CC(C)(O)C1CCN(S(=O)(=O)c2cc(C#N)ccc2Oc2cc(Cl)ccc2Cl)CC1` the figure was 221 to 225 °C; with `COc1cn(-c2ccc(-c3ncco3)cc2F)nc(-c2ccnn2-c2ccccc2)c1=O`, 223 to 225 °C. With `N#CC1(c2ccc(Cl)c(Cl)c2)CC(Cl)=C(Cl)N1CCO` (stereo unspecified), the melting point was in the range of 143 to 145 °C.

Compound `NC(C=C(CCCCO)CP(=O)(O)O)C(=O)O` (stereo unspecified) returned a melting point of 152 to 155 °C. The value for `CCOC(=O)C1=C(C)NC(CN(C)C)=C(C(=O)OCC)C1c1ccccc1Br` (stereo unspecified) was 142 to 143 °C; that for `CCS(=O)(=O)N(Cc1ccccc1)Cc1ccc2[nH]cc(CCCN3CCN(c4ncncc4OC)CC3)c2c1` was 73 to 75 °C.

In the case of `CCOC(=O)CCCCOc1ccc([N+](=O)[O-])c(C=C2C(=O)NC(=O)N2C)c1`, the melting point lay in the range of 121 to 123 °C.

On to `Nc1nc2c(ncn2CCC(COC(=O)n2ccnc2)COC(=O)n2ccnc2)c(=O)[nH]1`, for which the melting point is above 300 °C. With `CNC(=O)c1ccc(N2CCN(Cc3cc4c(c(OC)c3)OCC(=O)N4)CC2)c(C)c1` the figure was 234 to 235 °C. The value for `Cc1nnc(-c2ccc3ccn(-c4ccc(S(C)(=O)=O)cc4)c3c2)o1` was 228 to 229 °C; that for `CCCCNC(=O)C(C)Oc1ccc(COc2ccc(Cl)cc2)cc1` (stereo unspecified) was 98 °C. Compound `NS(=O)(=O)Oc1cc(C(F)(F)F)cc(C(F)(F)F)c1` returned a melting point of 118 to 120 °C. With `CCCCCCCCCCCCCCCCCC(=O)NCC(C)(C)COC(=O)CCCCCCCCCCCCCCCCC` the figure was 60 to 62 °C; with `CN(Cc1cccc(-c2ccc(CC3SC(=O)NC3=O)cc2)c1)C(=O)c1cc(Cl)cc(Cl)c1` (stereo unspecified), 106 °C; with `CCCCCC(=O)N1CCN2C[C@@H](c3ccccc3)c3ccccc3[C@@H]2C1` (relative stereo), 163 to 164 °C.

Turning to `Cc1ccc(-c2ccnc3c(C(N)=O)ncn23)cc1`, the melting point fell in the range of 263 to 266 °C.

`CC(=O)NCc1cccc(CCCOCCCCCCNCC(O)c2cc(Cl)c(N)c(Cl)c2)c1` (stereo unspecified): the melting point was 91 to 94 °C. With `CC(=O)C1CCC2C3CCC4CC=CCC4(C)C3C(OC(=O)CI)CC12C` (stereo unspecified) the figure was 127 to 129 °C. The value for `O=C(O)c1csnc1-c1ccc(Cl)cc1` was 182 °C; that for `C[C@@H](Nc1ncnc2cc(OCCO)c([N+](=O)[O-])cc12)c1ccccc1` was 187 to 192 °C. With `CC(C)(C)OC(=O)NOCCC(=O)Oc1c(F)c(F)c(F)c(F)c1F` the figure was 58 to 59 °C; with `NC(=O)N1CC(Oc2ccc(Cl)c(Cl)c2)C1`, 179 to 184 °C; with `CCOc1ccc2nc(NC(=O)CN3CCN(C(=O)CCCCCCC(=O)N(O)C(C)=O)CC3)sc2c1`, 98 to 103 °C.

In the case of `CCOC(=O)c1cc(O)ccc1CCc1cc2cc(C#N)ccc2o1`, the melting point is 133 to 135 °C. The compound `Cc1c(C)c2c(c(Br)c1N)C(c1ccc(C(C)C)cc1)CO2` (stereo unspecified) gave a melting point of 191 to 193 °C. With `CCCCn1c(-c2ccccc2)c(Cc2c(O)ccc3ccccc23)c(=O)[nH]c1=S` the figure was 201 to 203 °C; with `Cc1c(C=O)c2cnnc(OCc3ccccc3)c2n1Cc1ccccc1`, 147 to 149 °C. The value for `Cc1cc(NC(=O)c2ccn3c2CSC3c2cccnc2)c2ccccc2c1` (stereo unspecified) was 172 °C; that for `O=C(N[C@H]1CN(C(=O)NS(=O)(=O)N2CCN(NC(=O)OCc3ccccc3)C2=O)C1=O)OCc1ccccc1` was 75.7 to 116 °C.

`Cc1c(O)ccc2c1OCC1c3ccccc3OC21` (stereo unspecified) came in with a melting point of 160 to 162 °C. The value for `CN(C)c1ccc(C2SCC(C(=O)O)N2C(=O)OC(C)(C)C)cc1` (mixture of isomers) was 175 °C; that for `C=C(C)C(=O)NCCCNC(=O)OC(C)(C)C` was 85.8 °C; that for `COc1cccc(CC[C@H]2CNCCN2)c1` was 53 to 57 °C.

In the case of `FC(F)(F)c1ccc(-c2nc(Br)cc(Br)n2)cc1`, the melting point came out at 87 °C.
